“Also recorded” adds a separate entry of the source.
Key:
recombinant human VASH2 = recombinant human VASH2 (Homo sapiens, UniProt Q86V25); assay: In vitro detyrosination assay with recombinant human VASH2; type: biochemical; conditions: increasing concentration
Experimental: FIG. 32: In vitro detyrosination assays using recombinant human VASH1 and VASH2 enzymes in presence of increasing concentration of SVC_01.
Specificity of SVC-01 was assayed using both human VASH1 and VASH2 recombinant enzymes. […] Finally, to ensure that regulation of other genes involved in the detyrosination-tyrosination cycle is not affected, we analysed gene expression of all relevant and associated genes following treatment with SVC-02 in adult human cardiomyocytes. We found no alteration of VASH1, VASH2, MATCAP, TTL or SVBP gene expression between vehicle control and SVC-02 treated cells (FIG. 34).

[1] = system: primary cardiomyocytes isolated from Sprague Dawley rats; assay: Western blot of detyrosinated tubulin in primary cardiomyocytes; type: cell-based, rat
Experimental: A) Representative western blot and B) quantification of detyrosinated and alpha-tubulin levels after 2 hrs 37° C. incubation of freshly isolated adult rat cardiomyocytes with compound SVC_01 at indicated concentrations. N=4 Sprague Dawley rats.
Primary adult ventricular cardiac myocytes were isolated from 6 to 8 weeks old Sprague Dawley rats or 20 to 30 weeks old WKY, ZSF1 lean and obese rats. Briefly, the heart was removed from a rat anesthetized under isoflurane and retrograde-perfused on a Langendorff apparatus with a collagenase solution. The digested heart was then minced and triturated using a glass pipette. The resulting supernatant was separated and centrifuged at 300 revolution per minute (rpm) to isolate cardiomyocytes which were then resuspended in rat cardiomyocyte media at low density. Cardiomyocytes were cultured at 37° C. and 5% CO2 with 25 μmol/L of cytochalasin D. Rat cardiomyocyte media: medium 199 (Thermo Fisher 115090) supplemented with 1× Insulin-transferrin-selenium-X (Gibco 51500056), 1 μg μl^−1 primocin (Invivogen ant-pm-1), 20 mmol/L HEPES at pH 7.4 and 25 μmol/L cytochalasin D.
For whole cell protein extraction, isolated rat cardiomyocytes were lysed in RIPA buffer (Cayman #10010263) supplemented with protease and phosphatase Inhibitor cocktail (Cell Signaling #5872S) on ice for 1 hour. […] All samples were run in duplicates and analyzed in reference to GAPDH.

Carboxypeptidase A (CPA) = biological target: T1, Carboxypeptidase A (CPA) (Homo sapiens, UniProt P15085); assay: Carboxypeptidase A in vitro assay (western blot); type: biochemical; conditions: selectivity control
T1 sequence (P15085 111-419): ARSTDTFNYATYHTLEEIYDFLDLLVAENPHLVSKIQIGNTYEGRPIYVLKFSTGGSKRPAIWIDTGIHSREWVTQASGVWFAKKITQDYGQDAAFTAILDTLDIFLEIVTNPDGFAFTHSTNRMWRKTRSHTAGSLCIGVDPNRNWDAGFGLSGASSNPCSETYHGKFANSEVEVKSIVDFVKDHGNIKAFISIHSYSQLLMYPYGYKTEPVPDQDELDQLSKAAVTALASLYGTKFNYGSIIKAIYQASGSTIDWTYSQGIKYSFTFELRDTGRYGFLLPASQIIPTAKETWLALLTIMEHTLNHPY
Description: FIG. 6: In vitro detyrosination assays using recombinant human enzymes in absence or presence of SVC_01 or BzISA (specific carboxypeptidase A inhibitor). […] Reactions were stopped using SDS-page laemli buffer and loaded for western blotting using specific antibodies.
Below, the criteria for selection are detailed: • Protease with documented carboxypeptidase activity towards alpha tubulin. Carboxypeptidase A hydrolyzes peptide bonds of C-terminal residues with aromatic or aliphatic side-chains (FIG. 6). • Cysteine protease with preference for non-aromatic residues at P1′. The optimum recognition site for Human rhinovirus (HRV) type 14 3C protease is LEVLFQ/GP, with a glycine at the P1′ position (FIG. 7). • Cysteine protease with preference for aromatic residues at P1′ site. Alike VASH, cathepsin B prefers an aromatic residue at the P1′ position. This is considered to be our best control for specificity (FIG. 8)

[2] = system: cardiomyocytes isolated from failing human hearts; assay: Human myocyte contractility; type: cell-based
Experimental: Once excised, hearts were transported from the operating room to the laboratory in cold cardioplegia. The myocyte isolation was performed as previously described. An apical wedge was dissected from left ventricular free wall and a catheter was placed into the left anterior descending artery. The cannula was flushed with cold saline to evaluate perfusion of the wedge and tie any major vessels. The myocardium was then perfused with warm non-recirculating Krebs-Henseleit buffer (KHB) solution (12.5 mM glucose, 5.4 mM KCl, 1 mM lactic acid, 1.2 mM MgSO4, 130 mM NaCl, 1.2 mM NaH2PO4, 25 mM NaHCO3, 2 mM Na pyruvate, 20 mM BDM and 10 mM taurine, pH 7.4) for 10 minutes. Then, the myocardium was perfused with recirculated KHB and type II collagenase (294 units/mL) (Worthington Biochemical Corp., Lakewood, NJ, USA) for 5 minutes before calcium was slowly re-introduced to reach a final concentration of 1 mM. The collagenase and calcium supplemented KHB were recirculated for 25-30 minutes depending on the how the myocardium digested. The tissue was then removed from the cannula, rinsed in KHB with 1% bovine serum albumin (BSA) to stop the digestion, and then minced. The cell suspension was then filtered using 280-uM nylon mesh, centrifuged (25×g for 2 min), and resuspended in normal Tyrode's solution. Cells were treated with VASH inhibitor (VASHi) (1 mM) or vehicle (DMSO) before being placed in an incubator for 4 hours.
Contractility was assessed as previously described. After the 4-hour incubation with either VASHi or vehicle was complete, cardiomyocytes were transferred to 35 mm glass-bottom dishes. Contractility data was collected at 37 C. Cardiomyocytes were paced at 0.5 Hz using a myopacer (IonOptix MYP100) with custom fabricated carbon electrodes lowered into the glass bottom dish. Cells were paced for 10-15 seconds to reach steady state contractions and then data was recorded using high-speed video imaging with a Nikon PU-2000 inverted microscope with a 40× objective (IonWizard, IonOptix). A minimum of 5 contractions were recorded for Each myocyte and analyzed offline.
Cardiomyocytes were isolated from failing (N=4) and non-failing (N=3) human hearts, then treated with vehicle or VASHi (SVC-02) to evaluate bioactivity of the small molecule compound in primary human cardiomyocytes. Patient demographics are detailed in a table (FIG. 26). Compiled traces from all non-failing and failing patients are shown (FIG. 27).

Chain of recombinant human VASH2 (Q86V25 whole entry): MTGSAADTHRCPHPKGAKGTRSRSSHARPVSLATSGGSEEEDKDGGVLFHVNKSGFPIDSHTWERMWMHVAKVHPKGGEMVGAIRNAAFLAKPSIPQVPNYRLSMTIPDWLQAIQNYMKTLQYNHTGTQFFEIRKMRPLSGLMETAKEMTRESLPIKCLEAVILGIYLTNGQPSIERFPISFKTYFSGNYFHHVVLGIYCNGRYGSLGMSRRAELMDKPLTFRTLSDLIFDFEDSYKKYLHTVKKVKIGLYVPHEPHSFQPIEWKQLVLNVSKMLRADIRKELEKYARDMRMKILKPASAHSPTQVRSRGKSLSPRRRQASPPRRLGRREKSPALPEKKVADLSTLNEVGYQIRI

SMILES	inhibition of detyrosinating activity of recombinant human VASH2 (recombinant human VASH2)	reduction of tubulin detyrosination ([1]; 2 hours incubation, Sprague Dawley rat cardiomyocytes) [%]	reduction in detyrosination ([1]; 2 hrs 37° C., indicated concentrations)	inhibition of Carboxypeptidase A (Carboxypeptidase A (CPA))	contraction velocity [2]	fractional shortening [2]	resting sarcomere length [2]	time to 50% relaxation / relaxation ([2]; 4 hours incubation)
O=C(O)CCC[C@H](NC(=O)[C@H]1O[C@@H]1C(=O)C[C@@H](Cc1ccc(OCc2ccccc2)cc1)C(=O)O)C(=O)NCCc1ccccc1 [SVC_01]	efficiently inhibited; also recorded: efficient in inhibiting	~80	Dose-dependent reduction in detyrosination	No cross reactions observed	–	–	–	–
CCOC(=O)[C@H](Cc1ccc(OCC)cc1)NC(=O)[C@H]1O[C@@H]1C(=O)N[C@@H](Cc1ccc(OCC)cc1)C(=O)OCC [SVC_02]	–	–	–	–	did not significantly change	did not significantly change	did not significantly change	improved; also recorded: shortened the time to 50% relaxation

— patent publication US20260199284A1, “SPECIFIC VASH COMPOUNDS (SVC) INHIBITORS FOR HEART DISEASES” (MT ACT, priority 2023, published 2026)
